Data set [1] concerns PC12h cells. The data set is described as follows: Prevention of glutamate-induced cell death (apoptosis) in PC12h cells, surviving cells by LDH activity. The format is cell-based, rat. As to conditions: 1 mM glutamate, 72 hours, mean of 3 wells. Here is the method:
Substrain PC12h cells of rat-derived pheochromocytoma PC12 h cells were handed out by Professor Hiroshi Hatanaka of Osaka University. Dulbecco's modified Eagle's medium (DMEM) was purchased from Nissui Seiyaku K.K., HEPES (N-2-hydroxyethylpiperazine-N′-2-ethanesulfonic acid) buffer (pH 7.4), horse serum (HS) and a penicillin (5000 U/ml)/streptomycin (5 mg/ml) mixture from Gibco, fetal calf serum (FCS) from BioWhittaker, Inc., transferrin, insulin and progesterone from Sigma, Inc. A flask for incubation and a collagen-coated 96-well multi-well plate used were manufactured by Falcon Co., Ltd. and Iwaki Glass Co., Ltd., respectively. LDH cytotoxic test Wako was purchased from Wako Pure Chemical Industries, Ltd. Other reagents used were special grade chemicals commercially available.
PC12h cells were inoculated on the 96-well plate in 2×10^4 cells/cm^2. On the following day, the medium was exchanged with HEPES/DME medium containing […] and 20 nM progesterone. The cells survived 72 hours after were counted. The cell number was determined by solubilizing the cells survived in PBS containing Tween 20 after removal of the medium and assaying in terms of the LDH activity.
In PC12h cells, glutamate in the medium hampers uptake of cystine, or a material to make glutathione, into cells. Thus, when 1 mM or more glutamates are added to a medium and incubation is continued for 3 days or longer, it is known that PC12h cells become extinct due to apoptosis accompanied by a reduced level of glutathione in the cells.

The test system of data set [2] is sAPP Secretion in Rat-Derived Pheochromocytoma PC12h Cells. In words: sAPP secretion promoting activity in PC12h cells (Western blotting of culture supernatant). The format is cell-based. Conditions: 3 hours after addition. Here is the method: Substrain PC12 h cells of rat-derived pheochromocytoma PC12 h cells (Brain Res., 222 (191), p. 225-233) were handed out by Professor Hiroshi Hatanaka of Osaka University. Dulbecco's modified Eagle's medium (DMEM) was purchased from Nissui Seiyaku K.K., HEPES (N-2-hydroxyethylpiperazine-N′-2-ethanesulfonic acid) buffer (pH 7.4), horse serum (HS) and a penicillin (5000 U/ml)/streptomycin (5 mg/ml) mixture from Gibco, and fetal calf serum (FCS) from BioWhittaker, Inc. A flask for incubation and a 6-well multi-well plate coated with collagen manufactured by Falcon Co., Ltd. and Iwaki Glass Co., Ltd., respectively, were used. Anti-βAPP 22C11 antibody was purchased from Roche Diagnostics, Inc. Other reagents used were special grade chemicals commercially available.
PC12h cells were grown in DMEM medium supplemented with 10% FCS/5% HS/penicillin-streptomycin, the cells were taken out by pipetting. The cells were inoculated on the collagen-coated 6-well plate to become 50-70% confluent, which was allowed to stand for a day. On the following day, the well was rinsed twice with 1 ml of […] HEPES/DMEM. […]
The culture supernatant was concentrated by ultrafiltration using Microcon 10 (Amicon, Inc.). […] ECL Plus (Amersham, Inc.) was used for detection, followed by digitalization in Fluor-S Max (Bio-Rad Laboratories) and quantification using NIH-image.

Structures are written as SMILES.

As for `COc1ccc(C(=O)N2c3ccccc3[C@H](Nc3ccccc3)C[C@@H]2C)cc1OC` (relative stereo) [Compound 1-3, cis-1-(3,4-dimethoxybenzoyl)-2-methyl-N-phenyl-1,2,3,4-tetrahydro-4-quinolinamine], the “Surviving Rate (%)” value in data set [1] (0.1 μM compound) was 4.89%; in data set [1] (0.3 μM compound), 7.44%; in data set [1] (1.0 μM compound), 49.17%; in data set [1] (3.0 μM compound), 77.51%; in data set [1] (10.0 μM compound), 63.24%. The “sAPP secretion level (relative value to the control group, when the control group is made 100)” value in data set [2] (3 μM of each compound, mean of 3 wells, anti-βAPP 22C11 Western blotting quantified with NIH Image) is listed as 325.14. The “sAPP level increase as compared to the control group” value in data set [2] (3 μM, mean relative value in 3 wells (FIG. 2)) came to 3.3 times.

`COc1ccc(C(=O)N2CCC(Nc3ccccc3)c3cc(Cl)ccc32)cc1OC` (stereo not shown) [Example 48, 6-Chloro-1-(3,4-dimethoxybenzoyl)-N-phenyl-1,2,3,4-tetrahydro-4-quinolinamine] registered a melting point of 188 to 189 °C.

In turn, `COc1ccc(C(=O)N2CCC(Nc3ccccc3)c3ccc(Cl)cc32)cc1OC` (stereo not shown) [Example 50, 7-Chloro-1-(3,4-dimethoxybenzoyl)-N-phenyl-1,2,3,4-tetrahydro-4-quinolinamine] displayed a melting point of 125 to 126 °C.

`CCC1CC(N(C)c2ccccc2)c2ccccc2N1C(=O)c1ccc(OC)c(OC)c1` (stereo not shown) [Example 54, 1-(3,4-Dimethoxybenzoyl)-2-ethyl-N-methyl-N-phenyl-1,2,3,4-tetrahydro-4-quinolinamine] displayed a melting point of 146 to 148 °C.

One may read the melting point as the temperature, or range, at which the solid turns liquid.

The values above are taken from patent publication US20030216398A1, “Soluble beta amyloid precursor protein secretion promoters” (priority 2002, published 2003).
